Measurements: patent US20070128217A1 (priority 2003, published 2007)

Columns and labels:
[1] = tested on: antibodies in sera from SARS patients (sera 1a, 1b, 2, 6, 37, 62, London, SARS-yellow, SARS-green); type: binding, human; design: Binding of serum 6 to linear peptides of protein X1 of SARS-CoV Urbani / Binding of serum 37 to linear peptides of protein X1 of SARS-CoV Urbani / Binding of serum 6 to looped/cyclic peptide (PEPSCAN-ELISA) / Binding of serum 37 to looped/cyclic peptide (PEPSCAN-ELISA) / Binding of serum 37 to looped/cyclic peptides of protein X1 of SARS-CoV Urbani / Binding of serum 6 to linear peptides of protein X2 / Binding of serum 37 to linear peptides of protein X2 / Binding of serum 37 to looped/cyclic peptides of protein X2 of SARS-CoV Urbani / Binding of serum 6 to linear peptides of protein M of SARS-CoV Urbani / Binding of serum 37 to linear peptides of protein M of SARS-CoV Urbani / Binding of serum 6 to looped/cyclic peptides of protein M of SARS-CoV Urbani / Binding of serum 37 to looped/cyclic peptides of protein M of SARS-CoV Urbani / Binding of serum 6 to linear peptides of protein X3 of SARS-CoV Urbani / Binding of serum 37 to linear peptides of protein X3 of SARS-CoV Urbani / Binding of serum 37 to looped/cyclic peptides of protein X3 of SARS-CoV Urbani / Binding of serum 6 to linear peptides of protein X4 of SARS-CoV Urbani / Binding of serum 37 to linear peptides of protein X4 of SARS-CoV Urbani / Binding of serum 37 to looped/cyclic peptides of protein X4 of SARS-CoV Urbani / Binding of serum 6 to linear peptides of protein X5 of SARS-CoV Urbani / Binding of serum 37 to linear peptides of protein X5 of SARS-CoV Urbani / Binding of serum 37 to looped/cyclic peptides of protein X5 of SARS-CoV Urbani / Binding of serum 6 to linear peptides of protein N of SARS-CoV Urbani / Binding of serum 37 to linear peptides of protein N of SARS-CoV Urbani / Binding of serum 6 to linear peptide (PEPSCAN-ELISA) / Binding of serum 1a to looped/cyclic peptides of protein N of SARS-CoV Urbani / Binding of serum 1b to looped/cyclic peptides of protein N of SARS-CoV Urbani / Binding of serum 2 to looped/cyclic peptides of protein N of SARS-CoV Urbani / Binding of serum 6 to looped/cyclic peptides of protein N of SARS-CoV Urbani / Binding of serum 37 to looped/cyclic peptides of protein N of SARS-CoV Urbani / Binding of serum 62 to looped/cyclic peptides of protein N of SARS-CoV Urbani / Binding of serum London to looped/cyclic peptides of protein N of SARS-CoV Urbani / Binding of serum SARS-green to looped/cyclic peptides of protein N of SARS-CoV Urbani: unit not given here
[2] = tested on: rabbit serum obtained by immunizing a rabbit with the SARS-CoV strain Frankfurt 1; type: binding; design: Binding of a rabbit serum to linear peptides / Binding of a rabbit serum to looped peptides / Rabbit serum linear peptides / Rabbit serum looped peptides / Binding of a rabbit serum to linear peptides of protein N of SARS-CoV Urbani (Rabbit serum linear peptides) / Binding of a rabbit serum to looped/cyclic peptides of protein N of SARS-CoV Urbani (Rabbit serum looped peptides): unit not given here
[3] = tested on: control sera (pooled serum of ten healthy LUMC hospital workers; commercial negative donor pooled serum from the Dutch bloodbank); type: binding, human; design: Binding of Control serum LUMC to linear peptides / Binding of Control serum Blood-bank to linear peptides / Binding of Control serum LUMC to looped peptides / Binding of Control Serum Blood-Bank to Looped peptides / Binding of Control serum LUMC to linear peptides of the protein M of SARS-CoV Urbani / Binding of Control serum Blood-bank to linear peptides of the protein M of SARS-CoV Urbani / Binding of Control serum LUMC to looped peptides of the protein M of SARS-CoV Urbani / Binding of Control Serum Blood-Bank to Looped peptides of the protein M of SARS-CoV Urbani: unit not given here

Sequence | Binding of serum 1a to linear peptides of protein X1 of SARS-CoV Urbani [1] | Binding of serum 1a to looped/cyclic peptides of protein X1 of SARS-CoV Urbani [1] | Binding of serum 1b to linear peptides of protein X1 of SARS-CoV Urbani [1] | Binding of serum 1b to looped/cyclic peptides of protein X1 of SARS-CoV Urbani [1] | Binding of serum 2 to linear peptides of protein X1 of SARS-CoV Urbani [1] | Binding of serum 2 to looped/cyclic peptides of protein X1 of SARS-CoV Urbani [1] | Binding of serum 6 to linear peptides of protein X1 of SARS-CoV Urbani [1] | Binding of serum 6 to looped/cyclic peptides of protein X1 of SARS-CoV Urbani [1] | Binding of serum 37 to linear peptides of protein X1 of SARS-CoV Urbani [1] | Binding of serum 37 to looped/cyclic peptides of protein X1 of SARS-CoV Urbani [1] | Binding of serum 62 to linear peptides of protein X1 of SARS-CoV Urbani [1] | Binding of serum 62 to looped/cyclic peptides of protein X1 of SARS-CoV Urbani [1] | Binding of serum London to linear peptides of protein X1 of SARS-CoV Urbani [1] | Binding of serum London to looped/cyclic peptides of protein X1 of SARS-CoV Urbani [1] | Binding of serum SARS-green to linear peptides of protein X1 of SARS-CoV Urbani [1] | Binding of serum SARS-green to looped/cyclic peptides of protein X1 of SARS-CoV Urbani [1] | Binding of serum SARS-yellow to linear peptides of protein X1 of SARS-CoV Urbani [1] | Binding of serum SARS-yellow to looped/cyclic peptides of protein X1 of SARS-CoV Urbani [1] | Binding of a rabbit serum to linear peptides [2] | Binding of a rabbit serum to looped peptides [2] | also measured
PNVQIHTIDGSSGVA | 0.6 | 0.4 | 0.4 | 0.3 | 0.5 | 0.2 | 0.4 | 0.2 | 0.7 | 0.3 | 0.6 | 0.3 | 0.3 | 0.2 | 0.2 | 0.2 | 0.4 | 0.2 | 0.1 | 0.4 | Binding of Control Serum Blood-Bank to Looped peptides [3]: 0.5; Binding of Control serum Blood-bank to linear peptides [3]: 0.5; Binding of Control serum LUMC to linear peptides [3]: 0.6; Binding of Control serum LUMC to looped peptides [3]: 0.5
PYNSVTDTIVVTEGD | 0.5 | 0.4 | 0.4 | 0.3 | 0.4 | 0.3 | 0.4 | 0.1 | 0.5 | 0.3 | 0.4 | 0.3 | 0.2 | 0.2 | 0.2 | 0.5 | 0.3 | 0.4 | 0.1 | 0.3 | Binding of Control Serum Blood-Bank to Looped peptides [3]: 0.4; Binding of Control serum Blood-bank to linear peptides [3]: 0.4; Binding of Control serum LUMC to linear peptides [3]: 0.3; Binding of Control serum LUMC to looped peptides [3]: 0.4
